{"source": "patent US10364256B2", "about": "(GlaxoSmithKline Intellectual Property Development Limited, priority 2015, dated 2019)", "key": {"[1]": {"biological_target": "T1, Keap1 Kelch domain (321-609) / TAMRA-labeled 16mer NRF2 peptide (ETGE motif) (Homo sapiens, UniProt Q14145)", "T1 construct": "the Kelch domain (321-609) of Keap1 is used", "T1 sequence (Q14145 321-609)": "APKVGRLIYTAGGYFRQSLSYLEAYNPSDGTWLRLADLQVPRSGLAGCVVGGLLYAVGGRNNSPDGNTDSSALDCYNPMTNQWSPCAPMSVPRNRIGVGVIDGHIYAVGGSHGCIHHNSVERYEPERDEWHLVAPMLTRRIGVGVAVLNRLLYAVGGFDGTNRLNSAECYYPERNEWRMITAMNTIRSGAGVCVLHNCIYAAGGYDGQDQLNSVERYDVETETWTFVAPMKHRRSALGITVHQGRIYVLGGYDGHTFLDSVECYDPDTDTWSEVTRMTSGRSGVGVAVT", "assay": "NRF2-Keap1 FP Assay (Keap1 Kelch fluorescence polarization)", "assay_type": "binding", "conditions": "20 nM Keap1 (321-609), 8 nM Tamra labeled peptide", "from_the_text": "One model for the NRF2-Keap1 interaction is through two binding sites in the Neh2 domain on NRF2. The two sites are referred to as the DLG binding motif (latch domain, uM affinity) and the ETGE binding motif (hinge domain, nM affinity). The Keap1 protein consists of an N-terminal region (NTR), a broad complex, tramtrack, and brick a′ brac domain (BTB), an intervening region (IVR), a double glycine repeat domain (DGR or Kelch), and a C-terminal region. The DLG and ETGE motifs of NRF2's Neh2 domain bind to the Kelch domain of Keap1 at different affinities. In the Keap1 Kelch fluorescence polarization (FP) assay, a TAMRA-labeled 16mer peptide (AFFAQLQLDEETGEFL) containing the ETGE motif of NRF2 and the Kelch domain (321-609) of Keap1 is used. The assay determines if a compound interferes with the binding between Keap1 […] and the TAMRA-labeled peptide. Binding of TAMRA-labeled NRF2 peptide to Keap1 (321-609) results in a high FP signal. If a compound interferes with the binding between the peptide and the protein, it will cause the assay signal to decrease. Thus, assay signal is inversely proportional to binding inhibition.\n100 nl of 100× compound dose response curves (serial 3-fold dilutions) in DMSO are stamped using an Echo liquid handling system (Labcyte) into 384-well low volume black assay plates (Greiner, #784076), with DMSO in columns 6 and 18. The top concentration of compound is located in columns 1 and 13. Keap1 (321-609) is diluted to 40 nM (2×) in 1× assay buffer (50 mM Tris, pH 8.0, 100 mM NaCl, 5 mM MgCl2, 1 mM DTT, 2 mM CHAPS, and 0.005% BSA) and 5 ul is added using a Multidrop Combi (Thermo Electron Corporation) equipped with a metal tip dispenser to all wells of the compound plate, except column 18. Column 18 receives only 5 ul of assay buffer. Immediately, 5 uL of 16 nM (2×) of Tamra labeled peptide (AFFAQLQLDEETGEFL, 21st Century Biochemicals) is added to all wells of the plate. The plates are spun at 500 rpm for 1 min, incubated for 1 hr at room temperature, and read on an Analyst GT (Molecular Devices) equipped with excitation (530/25 nm) and emission (580/10 nm) filters designed for Tamra probes. A 561 nm dichroic mirror is also used in the Analyst. The final assay concentrations of Keap1 (321-609) and Tamra labeled peptide are 20 nM and 8 nM, respectively. Fluorescence measurements, represented as mP, are used in the transformation of the data. Compound activity is calculated based on percent inhibition, normalized against controls in the assay (Control 1 contains the Tamra peptide and Keap1 (321-609) together (0% response) and control 2 contains the Tamra peptide alone (100% response)). Data analysis is handled using the software package Abase XE (Surrey, United Kingdom. The % inhibition values are calculated by the equation: 100−(100*((compound response−average control 2)/(average control 1−average control2))). For calculation of pIC50s, Abase XE uses a four parameter equation. pIC50 is the negative log of the IC50."}, "[2]": {"tested_on": "NQO1 specific enzyme activity in BEAS-2B cells (marker for NRF2 activation)", "assay": "BEAS-2B NQO1 MTT Assay", "assay_type": "cell-based", "conditions": "compound incubated 48 hours, read-out: EC50 (NQO1 specific enzyme activity induction)", "from_the_text": "BEAS-2B NQO1 MTT Assay NAD(P)H:quinone oxidoreductase 1 (NQO1), also called DT diaphorase, is a homodimeric FAD-containing enzyme that catalyzes obligatory NAD(P)H-dependent two-electron reductions of quinones and protects cells against the toxic and neoplastic effects of free radicals and reactive oxygen species arising from one-electron reductions. The transcription of NQO1 is finely regulated by NRF2, and thus NQO1 activity is a good marker for NRF2 activation. On day one, frozen BEAS-2B cells (ATCC) are thawed in a water bath, counted, and re-suspended at a concentration of 250,000 cells/mL. Fifty microliters of cells are plated in 384 well black clear-bottomed plates. Plates are incubated at 37° C., 5% CO2 overnight. On day two, plates are centrifuged and 50 nL of compound or controls are added to the cells. Plates are then incubated at 37° C., 5% CO2 for 48 hours. On day four, medium is aspirated from the plate and crude cell lysates are made by adding 13 uL of 1× Cell Signaling Technologies lysis buffer with 1 Complete, Mini, EDTA-free Protease Inhibitor Tablet (Roche) for each 10 mL of lysis buffer. After lysis plates are incubated for 20 minutes at room temperature. Two microliters of lysate are removed for use in Cell Titer Glo assay (Promega) and MTT cocktail is prepared (Prochaska et. al. 1998) for measurement of NQO1 activity. Fifty microliters of MTT cocktail is added to each well, plate is centrifuged, and analyzed on an Envision plate reader (Perkin Elmer) using Absorbance 570 nm label for 30 minutes. Product formation is measured kinetically and the pEC50 of NQO1 specific activity induction is calculated by plotting the change in absorbance (Delta OD/min) versus the log of compound concentration followed by 3-parameter fitting. pEC50 is the negative log of the EC50."}, "[3]": {"biological_target": "T2, full length Keap1 protein / full length NRF2 protein (Homo sapiens, UniProt Q14145)", "T2 construct": "full length NRF2 protein and full length Keap1 protein (Keap1 exists a dimer) are used; His", "T2 sequence (Q14145 whole entry)": "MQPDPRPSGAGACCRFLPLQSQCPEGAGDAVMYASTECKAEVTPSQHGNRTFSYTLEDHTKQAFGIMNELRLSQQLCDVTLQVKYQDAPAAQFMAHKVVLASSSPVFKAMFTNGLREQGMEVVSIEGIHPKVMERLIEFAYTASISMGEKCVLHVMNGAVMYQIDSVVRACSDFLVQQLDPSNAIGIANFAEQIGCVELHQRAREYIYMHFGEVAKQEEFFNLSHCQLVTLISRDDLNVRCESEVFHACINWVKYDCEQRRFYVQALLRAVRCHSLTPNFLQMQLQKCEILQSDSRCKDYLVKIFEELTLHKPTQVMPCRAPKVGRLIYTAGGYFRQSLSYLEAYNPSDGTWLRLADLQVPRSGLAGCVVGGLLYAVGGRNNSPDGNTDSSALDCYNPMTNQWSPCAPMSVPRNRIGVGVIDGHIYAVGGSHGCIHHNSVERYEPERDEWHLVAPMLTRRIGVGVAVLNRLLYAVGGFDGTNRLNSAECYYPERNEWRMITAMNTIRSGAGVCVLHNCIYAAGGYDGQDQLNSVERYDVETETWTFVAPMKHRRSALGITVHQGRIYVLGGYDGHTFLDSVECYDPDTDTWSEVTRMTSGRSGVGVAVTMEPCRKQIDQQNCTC", "assay": "NRF2-Keap1 TR-FRET Low Protein Assay", "assay_type": "binding", "conditions": "1.25 nM Keap1 FlagHis and 2.5 nM biotin-NRF2 added", "from_the_text": "NRF2-Keap1 TR-FRET Low Protein Assay In the NRF2-Keap1 TR-FRET (time-resolved fluorescence resonance energy transfer) low protein assay, full length NRF2 protein and full length Keap1 protein (Keap1 exists a dimer) are used. The assay detects a compound's ability to displace the binding of Keap1 […] with biotinylated Avi-NRF2 protein. Biotin-NRF2 binds to streptavidin-europium (a component of the detection mix) and Keap1 […] is recognized by anti-Flag APC (allophycocyanin) antibody (also a component of the detection mix). If binding occurs between the two proteins, there will be an energy transfer from the Eu+3 (donor) at 615 nm to the APC (acceptor) at 665 nm. A potential NRF2 inhibitor will cause a reduction in the TR-FRET signal by interfering with the binding of Keap1 to NRF2. Ten nanoliters of 100× compound dose response curves (serial 3-fold dilutions) in DMSO are stamped using an Echo liquid handling system (Labcyte) into 384-well, low volume, black assay plates (Greiner, #784076), with DMSO in columns 6 and 18. An additional 90 nl DMSO is added to each well, to bring the total volume to 100 nl per well. The top concentration of compound is located in columns 1 and 13, with the serial dilutions going across the row. All reagents are diluted in assay buffer (50 mM Tris, pH 8.0, 5 mM MgCl2, 100 mM NaCl, 0.005% BSA, 1 mM DTT, and 2 mM CHAPS. The BSA, DTT, and CHAPS are added to the assay buffer on the day of assay. […] Wells in column 18 receive 5 ul of assay buffer instead. Plates are centrifuged at 500 rpm for 1 minute, covered with a plate lid, and incubated at 37° C. for 2.25 hours. Plates are then removed from the incubator and allowed to cool to RT for 15 minutes. Five microliters of 2.5 nM biotin-NRF2 protein is then added to all wells of the plates and the plates are spun at 500 rpm for 1 minute, followed by incubating at 4° C. for 1.25 hours. The plates are then allowed to warm to RT for 15 minutes, followed by the addition of 10 ul of detection mix (1 nM Streptavidin Eu+W1024 and 5 ug/ml mouse anti-DYKDDDDK IgG conjugated to SureLight APC antibody; both from Columbia Biosciences) to all wells. Plates are spun at 500 rpm for 1 minute, incubated for 1 hour at RT, and read on an Envision plate reader using a 320 nm excitation filter and 615 nm and 665 nm emission filters. […] Data analysis is handled using the software package Abase XE (Surrey, United Kingdom). […] For calculation of pIC50s, Abase XE uses a four parameter equation. pIC50 is the negative log of the IC50."}}, "note": "Where two headings read alike, the source gives them in different places.", "data": [{"compound": "1-(3′-((1-Ethyl-2,3-dihydro-1H-benzo[e][1,4]diazepin-4(5H)-yl)methyl)-[1,1′-biphenyl]-3-yl)-5-((1,2-trans)-2-(1-methyl-1H-1,2,3-triazol-4-yl)cyclopropyl)-1H-pyrazole-4-carboxylic Acid [Example 127]", "values": [{"measurement": "IC50", "setting": "[1]", "value": "10 to 100", "unit": "nM"}, {"measurement": "EC50", "setting": "[2]", "value": "100 to 1000", "unit": "nM"}, {"measurement": "IC50", "setting": "[3]", "value": "10 to 100", "unit": "nM"}]}, {"compound": "C[C@H](Oc1cccc(-c2cccc(-n3ncc(C(=O)O)c3[C@@H]3C[C@H]3c3cn(C)nn3)c2)c1)C1CCCCC1", "note": "(racemic) [Example 75, 1-(3′-((S)-1-Cyclohexylethoxy)-[1,1′-biphenyl]-3-yl)-5-(trans-2-(1-methyl-1H-1,2,3-triazol-4-yl)cyclopropyl)-1H-pyrazole-4-carboxylic Acid]", "values": [{"measurement": "EC50", "setting": "[2]; Homo sapiens, BEAS-2B, 48 h", "value": "1 to 10", "unit": "nM"}]}, {"compound": "C[C@H](Oc1cccc(-c2cccc(-n3ncc(C(=O)O)c3[C@@H]3C[C@H]3c3cn(C4CC4)nn3)c2)c1)C1CCCCC1", "note": "(racemic) [Example 79, 1-(3′-((S)-1-Cyclohexylethoxy)-[1,1′-biphenyl]-3-yl)-5-(trans-2-(1-cyclopropyl-1H-1,2,3-triazol-4-yl)cyclopropyl)-1H-pyrazole-4-carboxylic acid]", "values": [{"measurement": "EC50", "setting": "[2]; Homo sapiens", "value": "1 to 10", "unit": "nM"}]}, {"compound": "C[C@H](Oc1cccc(-c2cccc(-n3ncc(C(=O)O)c3[C@@H]3C[C@H]3c3cn(C4CCOCC4)nn3)c2)c1)C1CCCCC1", "note": "(racemic) [Example 83, 1-(3′-((S)-1-Cyclohexylethoxy)-[1,1′-biphenyl]-3-yl)-5-(trans-2-(1-(tetrahydro-2H-pyran-4-yl)-1H-1,2,3-triazol-4-yl)cyclopropyl)-1H-pyrazole-4-carboxylic acid]", "values": [{"measurement": "EC50", "setting": "[2]; Homo sapiens", "value": "1 to 10", "unit": "nM"}]}, {"compound": "C[C@H](Oc1cccc(-c2cccc(-n3ncc(C(=O)O)c3[C@@H]3C[C@H]3c3cn(CC(F)(F)F)nn3)c2)c1)C1CCCCC1", "note": "(racemic) [Example 89, 1-(3′-((S)-1-Cyclohexylethoxy)-[1,1′-biphenyl]-3-yl)-5-(trans-2-(1-(2,2,2-trifluoroethyl)-1H-1,2,3-triazol-4-yl)cyclopropyl)-1H-pyrazole-4-carboxylic acid]", "values": [{"measurement": "EC50", "setting": "[2]; Homo sapiens", "value": "1 to 10", "unit": "nM"}]}, {"compound": "C[C@H](Oc1cccc(-c2cccc(-n3ncc(C(=O)O)c3[C@@H]3C[C@H]3c3c[nH]nn3)c2)c1)C1CCCCC1", "note": "(racemic) [Example 93, 5-(trans-2-(1H-1,2,3-Triazol-4-yl)cyclopropyl)-1-(3′-((S)-1-cyclohexylethoxy)-[1,1′-biphenyl]-3-yl)-1H-pyrazole-4-carboxylic Acid]", "values": [{"measurement": "EC50", "setting": "[2]; Homo sapiens", "value": "1 to 10", "unit": "nM"}]}, {"compound": "C[C@H]1Cc2ccccc2S(=O)(=O)N(Cc2cccc(-c3cccc(-n4ncc(C(=O)O)c4[C@@H]4C[C@H]4c4cn(C)nn4)c3)c2)C1", "note": "(racemic) [Example 136, 1-(3′-(((S)-4-methyl-1,1-dioxido-4,5-dihydrobenzo[f][1,2]thiazepin-2(3H)-yl)methyl)-[1,1′-biphenyl]-3-yl)-5-((1,2-trans)-2-(1-methyl-1H-1,2,3-triazol-4-yl)cyclopropyl)-1H-pyrazole-4-carboxylic acid]", "values": [{"measurement": "EC50", "setting": "[2]; Homo sapiens", "value": "100 to 1000", "unit": "nM"}]}, {"compound": "C[C@@H]1Cc2ccccc2S(=O)(=O)N(Cc2cccc(-c3cccc(-n4ncc(C(=O)O)c4[C@@H]4C[C@H]4c4cn(C)nn4)c3)c2)C1", "note": "(racemic) [Example 137, 1-(3′-(((R)-4-methyl-1,1-dioxido-4,5-dihydrobenzo[f][1,2]thiazepin-2(3H)-yl)methyl)-[1,1′-biphenyl]-3-yl)-5-((1,2-trans)-2-(1-methyl-1H-1,2,3-triazol-4-yl)cyclopropyl)-1H-pyrazole-4-carboxylic acid]", "values": [{"measurement": "EC50", "setting": "[2]; Homo sapiens", "value": "10 to 100", "unit": "nM"}]}, {"compound": "CCC[C@@H]1CCCCN1C(=O)c1cccc(-c2cccc(-n3ncc(C(=O)O)c3[C@@H]3C[C@H]3c3cn(C)nn3)c2)c1", "note": "(racemic) [Example 199, 5-((1,2-trans)-2-(1-methyl-1H-1,2,3-triazol-4-yl)cyclopropyl)-1-(3′-((R)-2-propylpiperidine-1-carbonyl)-[1,1′-biphenyl]-3-yl)-1H-pyrazole-4-carboxylic acid]", "values": [{"measurement": "EC50", "setting": "[2]; Homo sapiens, BEAS-2B, 48 h", "value": "10 to 100", "unit": "nM"}]}, {"compound": "CC(Cc1cccc(-c2cccc(-n3ncc(C(=O)O)c3[C@@H]3C[C@H]3c3cn(C)nn3)c2)c1)C1CCCCC1", "note": "(single isomer, unassigned) [Example 116f, 1-(3′-((R) or (S)-2-Cyclohexylpropyl)-[1,1′-biphenyl]-3-yl)-5-((1R,2R)-2-(1-methyl-1H-1,2,3-triazol-4-yl)cyclopropyl)-1H-pyrazole-4-carboxylic Acid]", "values": [{"measurement": "IC50", "setting": "[1]", "value": "10 to 100", "unit": "nM"}, {"measurement": "EC50", "setting": "[2]", "value": "1 to 10", "unit": "nM"}]}]}
